Experimental data: PubChem BioAssay (NCI)
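These data come from cells grown in 96-well plates and exposed to compound for 48 hours at five concentrations. GI50 marks 50% less growth. TGI denotes the concentration required for complete inhibition of growth.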

Tested on: HOP-92 NSCLC
Test: growth of human tumour cells (NCI), 48 h

SMILES	GI50 [µM]	TGI [µM]
O=c1[nH]c(O)c(C=Nc2ccc(-c3nc4ccccc4o3)cc2)c(=O)[nH]1	> 100	> 100
COc1ccc(-c2cc(=O)oc3c4c(ccc23)OCN(Cc2ccc(F)cc2)C4)cc1	10	24.2

Tested on: HS 578T breast
Test: growth of human tumour cells (NCI), 48 h

SMILES	GI50 [µM]	TGI [µM]
COc1nc(=O)n(C2C=CC(=O)O2)cc1F (stereo not drawn)	13.4	40.8
CNCCCNc1ccnc2cc(Cl)ccc12	20.8	78
O=c1[nH]c(O)c(C=Nc2ccc(-c3nc4ccccc4o3)cc2)c(=O)[nH]1	> 100	> 100
COc1ccc(-c2cc(=O)oc3c4c(ccc23)OCN(Cc2ccc(F)cc2)C4)cc1	15.8	47.9

Tested on: HT29 colon
Test: growth of human tumour cells (NCI), 48 h

SMILES	GI50 [µM]	TGI [µM]
COc1nc(=O)n(C2C=CC(=O)O2)cc1F (stereo not drawn)	4.63	16.7
CNCCCNc1ccnc2cc(Cl)ccc12	13.4	55.5
COc1ccc(-c2cc(=O)oc3c4c(ccc23)OCN(Cc2ccc(F)cc2)C4)cc1	17.6	34.9

Tested on: IGROV1 ovarian
Test: growth of human tumour cells (NCI), 48 h

SMILES	GI50 [µM]	TGI [µM]
COc1nc(=O)n(C2C=CC(=O)O2)cc1F (stereo not drawn)	8.69	23.2
CNCCCNc1ccnc2cc(Cl)ccc12	18.8	63.8
O=c1[nH]c(O)c(C=Nc2ccc(-c3nc4ccccc4o3)cc2)c(=O)[nH]1	> 100	> 100
COc1ccc(-c2cc(=O)oc3c4c(ccc23)OCN(Cc2ccc(F)cc2)C4)cc1	20.5	51.5

Tested on: K-562 leukemia
Test: growth of human tumour cells (NCI), 48 h

SMILES	GI50 [µM]	TGI [µM]
CNCCCNc1ccnc2cc(Cl)ccc12	15.2	> 100
O=c1[nH]c(O)c(C=Nc2ccc(-c3nc4ccccc4o3)cc2)c(=O)[nH]1	35	> 100
COc1ccc(-c2cc(=O)oc3c4c(ccc23)OCN(Cc2ccc(F)cc2)C4)cc1	19.3	68.4

Tested on: KM12 colon
Test: growth of human tumour cells (NCI), 48 h

SMILES	GI50 [µM]	TGI [µM]
COc1nc(=O)n(C2C=CC(=O)O2)cc1F (stereo not drawn)	11.7	23.9
CNCCCNc1ccnc2cc(Cl)ccc12	19.4	67.6
O=c1[nH]c(O)c(C=Nc2ccc(-c3nc4ccccc4o3)cc2)c(=O)[nH]1	31.3	> 100
COc1ccc(-c2cc(=O)oc3c4c(ccc23)OCN(Cc2ccc(F)cc2)C4)cc1	17.6	35.2

Tested on: LOX IMVI melanoma
Test: growth of human tumour cells (NCI), 48 h

SMILES	GI50 [µM]	TGI [µM]
COc1nc(=O)n(C2C=CC(=O)O2)cc1F (stereo not drawn)	10.9	22.9
CNCCCNc1ccnc2cc(Cl)ccc12	16.8	36.6
O=c1[nH]c(O)c(C=Nc2ccc(-c3nc4ccccc4o3)cc2)c(=O)[nH]1	25.3	58.9
COc1ccc(-c2cc(=O)oc3c4c(ccc23)OCN(Cc2ccc(F)cc2)C4)cc1	16.7	32.3

Tested on: M14 melanoma
Test: growth of human tumour cells (NCI), 48 h

SMILES	GI50 [µM]	TGI [µM]
COc1nc(=O)n(C2C=CC(=O)O2)cc1F (stereo not drawn)	5.82	20.6
CNCCCNc1ccnc2cc(Cl)ccc12	16	34.4
O=c1[nH]c(O)c(C=Nc2ccc(-c3nc4ccccc4o3)cc2)c(=O)[nH]1	50.8	> 100

Tested on: MALME-3M melanoma
Test: growth of human tumour cells (NCI), 48 h

SMILES	GI50 [µM]	TGI [µM]
COc1nc(=O)n(C2C=CC(=O)O2)cc1F (stereo not drawn)	1.8	6.95
CNCCCNc1ccnc2cc(Cl)ccc12	19.7	40.5
COc1ccc(-c2cc(=O)oc3c4c(ccc23)OCN(Cc2ccc(F)cc2)C4)cc1	15.4	32.7

Tested on: MCF7 breast
Test: growth of human tumour cells (NCI), 48 h

SMILES	GI50 [µM]	TGI [µM]
COc1nc(=O)n(C2C=CC(=O)O2)cc1F (stereo not drawn)	2.3	10.9
CNCCCNc1ccnc2cc(Cl)ccc12	23.4	83.8
COc1ccc(-c2cc(=O)oc3c4c(ccc23)OCN(Cc2ccc(F)cc2)C4)cc1	15.7	34.5

Tested on: MDA-MB-231 breast
Test: growth of human tumour cells (NCI), 48 h

SMILES	GI50 [µM]	TGI [µM]
COc1nc(=O)n(C2C=CC(=O)O2)cc1F (stereo not drawn)	12.7	25.9
CNCCCNc1ccnc2cc(Cl)ccc12	12.7	56.5
O=c1[nH]c(O)c(C=Nc2ccc(-c3nc4ccccc4o3)cc2)c(=O)[nH]1	29.2	> 100
COc1ccc(-c2cc(=O)oc3c4c(ccc23)OCN(Cc2ccc(F)cc2)C4)cc1	18.5	40.2

Tested on: MDA-MB-435
Test: growth of human tumour cells (NCI), 48 h

SMILES	GI50 [µM]	TGI [µM]
COc1nc(=O)n(C2C=CC(=O)O2)cc1F (stereo not drawn)	5.23	27.6
CNCCCNc1ccnc2cc(Cl)ccc12	14.4	28.4
O=c1[nH]c(O)c(C=Nc2ccc(-c3nc4ccccc4o3)cc2)c(=O)[nH]1	33.3	> 100
COc1ccc(-c2cc(=O)oc3c4c(ccc23)OCN(Cc2ccc(F)cc2)C4)cc1	16.5	34.7

Tested on: MOLT-4 leukemia
Test: growth of human tumour cells (NCI), 48 h

SMILES	GI50 [µM]	TGI [µM]
CNCCCNc1ccnc2cc(Cl)ccc12	20.6	69.9
O=c1[nH]c(O)c(C=Nc2ccc(-c3nc4ccccc4o3)cc2)c(=O)[nH]1	> 100	> 100
COc1ccc(-c2cc(=O)oc3c4c(ccc23)OCN(Cc2ccc(F)cc2)C4)cc1	19.4	58.3

Tested on: NCI-H226 lung
Test: growth of human tumour cells (NCI), 48 h

SMILES	GI50 [µM]	TGI [µM]
COc1nc(=O)n(C2C=CC(=O)O2)cc1F (stereo not drawn)	16.9	56.6
CNCCCNc1ccnc2cc(Cl)ccc12	25.9	87.5
O=c1[nH]c(O)c(C=Nc2ccc(-c3nc4ccccc4o3)cc2)c(=O)[nH]1	90.3	> 100
COc1ccc(-c2cc(=O)oc3c4c(ccc23)OCN(Cc2ccc(F)cc2)C4)cc1	18.2	54.5

Tested on: NCI-H23 lung
Test: growth of human tumour cells (NCI), 48 h

SMILES	GI50 [µM]	TGI [µM]
COc1nc(=O)n(C2C=CC(=O)O2)cc1F (stereo not drawn)	8.06	25.5
CNCCCNc1ccnc2cc(Cl)ccc12	30.8	> 100
COc1ccc(-c2cc(=O)oc3c4c(ccc23)OCN(Cc2ccc(F)cc2)C4)cc1	20.5	49.4

Tested on: NCI-H460 lung
Test: growth of human tumour cells (NCI), 48 h

SMILES	GI50 [µM]	TGI [µM]
COc1nc(=O)n(C2C=CC(=O)O2)cc1F (stereo not drawn)	12.5	28.7
CNCCCNc1ccnc2cc(Cl)ccc12	17.9	37.8
O=c1[nH]c(O)c(C=Nc2ccc(-c3nc4ccccc4o3)cc2)c(=O)[nH]1	> 100	> 100
